In patent US20230167088A1, “1-PYRAZINYLPYRAZOLYL-3-OXYALKYL ACIDS AND THEIR DERIVATIVES, AND THEIR USE FOR CONTROL OF UNDESIRED PLANT GROWTH” (BAYER AKTIENGESELLSCHAFT, priority 2020, published 2023):

Key:
SETVI [1] = assay: Herbicidal post-emergence action 1a (greenhouse pots, visual rating); format: in vivo, Setaria viridis; settings: rated visually about 3 weeks after treatment, 100% = plants have died, 0% = like control plants
Procedure, shortened: (§1)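 Visual scoring versus untreated plants (100% = plants dead, 0% = as control) followed roughly 3 weeks in the greenhouse after treatment. Plants grown in sandy loam pots had been sprayed on green parts at the one-leaf stage, 2–3 weeks post-sowing, with aqueous WP/EC preparations containing 0.5% additive, 600 l/ha, at 320 and/or 80 g/ha.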

ECHCG [2] = assay: Herbicidal pre-emergence action 2a (greenhouse pots, visual scoring); format: in vivo, Echinochloa crus-galli; settings: dosage 320 g/ha, visual scoring after about 3 weeks
Source text: (§2) [table] a) Seeds of monocotyledonous and dicotyledonous weed plants and crop plants are placed in plastic or organic plant pots and covered with soil. The compounds of the invention, formulated in the form of wettable powders (WP) or as emulsion concentrates (EC), are then applied onto the surface of the covering soil as aqueous suspension or emulsion with addition of 0.5% additive at a water application rate of 600 1/ha (converted). After the treatment, the pots are placed in a greenhouse and kept under good growth conditions for the trial plants. After about 3 weeks, the effect of the preparations is scored visually in comparison with untreated controls as percentages. For example, 100% activity=the plants have died, 0% activity=like control plants. Tables B1 to B15 below show the effects of selected compounds of the general formula (I) according to Tables 1 and 2 on various harmful plants and an application rate corresponding to 320 g/ha and/or 80 g/ha, which were obtained by the experimental procedure mentioned above.

POLCO [3] = assay: as above; format: in vivo, Polygonum convolvulus; settings: dosage 320 g/ha, visual scoring after about 3 weeks vs untreated controls
Procedure, shortened: (§3)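 Pots of covered seed were sprayed pre-emergence at 320 and/or 80 g/ha. Roughly three weeks of greenhouse growth preceded visual scoring in percent versus untreated controls.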

SETVI [4] = assay: as above; format: in vivo, Setaria viridis; settings: dosage 320 g/ha, visual scoring after about 3 weeks vs untreated controls
Procedure, shortened: as §3

AVEFA [5] = assay: as above; format: in vivo, Avena fatua; settings: dosage 320 g/ha, visual scoring after about 3 weeks
Procedure, shortened: as §3

PHBPU [6] = assay: as above; format: in vivo, Pharbitis purpurea; settings: dosage 320 g/ha, visual scoring after about 3 weeks vs untreated controls
Source text: as §2

AMARE [7] = assay: as above; format: in vivo, Amaranthus retroflexus; settings: dosage 320 g/ha, visual scoring after about 3 weeks vs untreated controls
Procedure, shortened: as §3

ECHCG [8] = assay: Herbicidal post-emergence action 1a (greenhouse pots, visual rating); format: in vivo, Echinochloa crus-galli; settings: Dosage 320 g/ha; rated visually about 3 weeks after treatment; 100% = plants have died, 0% = like control plants
Description: (§4) [table] a) Seeds of monocotyledonous and dicotyledonous weeds and crop plants are placed in sandy loam in plastic or organic plant pots, covered with soil and cultivated in a greenhouse under controlled growth conditions. 2 to 3 weeks after sowing, the test plants are treated at the one-leaf stage. The compounds of the invention, formulated in the form of wettable powders (WP) or as emulsion concentrates (EC), are then sprayed onto the green parts of the plants as aqueous suspension or emulsion with addition of 0.5% additive at a water application rate of 600 1/ha (converted). After the test plants have been kept in the greenhouse under optimum growth conditions for about 3 weeks, the activity of the preparations is rated visually in comparison to untreated controls. For example, 100% activity=the plants have died, 0% activity=like control plants. Tables A1 to A15 below show the effects of selected compounds of the general formula (I) according to Tables 1 and 2 on various harmful plants and an application rate corresponding to 320 g/ha and/or 80 g/ha, which were obtained by the experimental procedure mentioned above.

ALOMY [9] = assay: as above; format: in vivo, Alopecurus myosuroides; settings: rated visually about 3 weeks after treatment, 100% = plants have died, 0% = like control plants
Procedure, shortened: as §1

LOLRI [10] = assay: as above; format: in vivo, Lolium rigidum; settings: rated visually about 3 weeks after treatment, 100% = plants have died, 0% = like control plants
Procedure, shortened: as §1

LOLRI [11] = assay: Herbicidal pre-emergence action 2a (greenhouse pots, visual scoring); format: in vivo, Lolium rigidum; settings: dosage 320 g/ha, visual scoring after about 3 weeks vs untreated controls
Procedure, shortened: as §3

MATIN = assay: as above; format: in vivo, Matricaria inodora; settings: dosage 320 g/ha, visual scoring after about 3 weeks vs untreated controls
Procedure, shortened: as §3

PHBPU [12] = assay: Herbicidal post-emergence action 1a (greenhouse pots, visual rating); format: in vivo, Pharbitis purpurea; settings: visual rating about 3 weeks after treatment
Procedure, shortened: as §1

VERPE [13] = assay: Herbicidal pre-emergence action 2a (greenhouse pots, visual scoring); format: in vivo, Veronica persica; settings: dosage 320 g/ha, visual scoring after about 3 weeks vs untreated controls
Procedure, shortened: as §3

AMARE [14] = assay: Herbicidal post-emergence action 1a (greenhouse pots, visual rating); format: in vivo, Amaranthus retroflexus; settings: visual rating about 3 weeks after treatment
Procedure, shortened: as §1

AVEFA [15] = assay: as above; format: in vivo, Avena fatua; settings: rated visually about 3 weeks after treatment, 100% = plants have died, 0% = like control plants
Procedure, shortened: as §1

ABUTH = assay: as above; format: in vivo, Abutilon theophrasti; settings: visual rating about 3 weeks after treatment
Procedure, shortened: as §1

VERPE [16] = assay: as above; format: in vivo, Veronica persica; settings: visual rating about 3 weeks after treatment
Procedure, shortened: as §1

ALOMY [17] = assay: Herbicidal pre-emergence action 2a (greenhouse pots, visual scoring); format: in vivo, Alopecurus myosuroides; settings: dosage 320 g/ha, visual scoring after about 3 weeks
Procedure, shortened: as §3

harmful plants [18] = assay: Herbicidal post-emergence action 1a, summary across species; format: in vivo; settings: Tables A1 to A15 (320 g/ha and/or 80 g/ha)
Description: as §4, with “a)” for “[table] a)”, “plants.” for “plants. Tables A1 to A15 below show the effects of selected compounds of the general formula (I) according to Tables 1 and 2 on various harmful plants and an application rate corresponding to 320 g/ha and/or 80 g/ha, which were obtained by the experimental procedure mentioned above.”
Tables A1 to A15 below show the effects of selected compounds of the general formula (I) according to Tables 1 and 2 on various harmful plants and an application rate corresponding to 320 g/ha and/or 80 g/ha, which were obtained by the experimental procedure mentioned above.
For example, compound nos. I-05, I-07, I-08, I-10, I-12, I-16, I-17, I-22, I-36, I-37, I-39 and I-40 in the post-emergence method have very good action (80% to 100% herbicidal activity) against harmful plants such as Alopecurus myosuroides, Amaranthus retroflexus, Avena fatua, Lolium rigidum, Polygonum convolvulus, Setaria viridis, Veronica persica and Viola tricolor at an application rate of 0.32 kg of active substance per hectare.

DIGSA [19] = assay: Herbicidal pre-emergence action 2a (greenhouse pots, visual scoring); format: in vivo, Digitaria sanguinalis; settings: dosage 320 g/ha, visual scoring after about 3 weeks
Source text: as §2

POLCO [20] = assay: Herbicidal post-emergence action 1a (greenhouse pots, visual rating); format: in vivo, Polygonum convolvulus; settings: dosage 320 g/ha, visual rating about 3 weeks after treatment
Procedure, shortened: as §1

VIOTR [21] = assay: Herbicidal pre-emergence action 2a (greenhouse pots, visual scoring); format: in vivo, Viola tricolor; settings: dosage 320 g/ha, visual scoring after about 3 weeks vs untreated controls
Procedure, shortened: as §3

VIOTR [22] = assay: Herbicidal post-emergence action 1a (greenhouse pots, visual rating); format: in vivo, Viola tricolor; settings: visual rating about 3 weeks after treatment
Procedure, shortened: as §1

harmful plants [23] = assay: Herbicidal pre-emergence action 2a, summary across species; format: in vivo; settings: Tables B1 to B15 (320 g/ha and/or 80 g/ha)
Source text: as §2, with “a)” for “[table] a)”, “plants.” for “plants. Tables B1 to B15 below show the effects of selected compounds of the general formula (I) according to Tables 1 and 2 on various harmful plants and an application rate corresponding to 320 g/ha and/or 80 g/ha, which were obtained by the experimental procedure mentioned above.”
Tables B1 to B15 below show the effects of selected compounds of the general formula (I) according to Tables 1 and 2 on various harmful plants and an application rate corresponding to 320 g/ha and/or 80 g/ha, which were obtained by the experimental procedure mentioned above.
For example, compound nos. I-07, I-08, I-11, I-12, I-13, I-16, I-17, I-20, I-36, I-37, I-39, I-45, I-46, I-48, I-52 and I-53 in the pre-emergence method have very good action (80% to 100% herbicidal activity) against harmful plants such as Alopecurus myosuroides, Amaranthus retroflexus, Digitaria sanguinalis, Lolium rigidum, Polygonum convolvulus, Setaria viridis, Veronica persica and Viola tricolor at an application rate of 0.32 kg of active substance per hectare.

DIGSA [24] = assay: Herbicidal post-emergence action 1a (greenhouse pots, visual rating); format: in vivo, Digitaria sanguinalis; settings: rated visually about 3 weeks after treatment, 100% = plants have died, 0% = like control plants
Description: as §4

SMILES | Post-emergence action against SETVI in % (SETVI [1]; Dosage 320 g/ha) [%] | Pre-emergence action against ECHCG in % (ECHCG [2]) [%] | Pre-emergence action against POLCO in % (POLCO [3]) [%] | Pre-emergence action against SETVI in % (SETVI [4]) [%] | Pre-emergence action against AVEFA in % (AVEFA [5]) [%] | Pre-emergence action against AMARE in % (AMARE [7]) [%] | Post-emergence action against ECHCG in % (ECHCG [8]) [%] | Post-emergence action against ALOMY in % (ALOMY [9]; Dosage 320 g/ha) [%] | Post-emergence action against LOLRI in % (LOLRI [10]; Dosage 320 g/ha) [%] | Pre-emergence action against LOLRI in % (LOLRI [11]) [%] | Pre-emergence action against VERPE in % (VERPE [13]) [%] | Post-emergence action against AMARE in % (AMARE [14]; dosage 80 g/ha) [%] | Post-emergence action against AMARE in % (AMARE [14]; dosage 320 g/ha) [%] | Post-emergence action against AVEFA in % (AVEFA [15]; Dosage 80 g/ha) [%] | Post-emergence action against AVEFA in % (AVEFA [15]; Dosage 320 g/ha) [%] | Post-emergence action against ABUTH in % (ABUTH; dosage 80 g/ha) [%] | Post-emergence action against ABUTH in % (ABUTH; dosage 320 g/ha) [%] | Post-emergence action against VERPE in % (VERPE [16]; dosage 320 g/ha) [%] | Pre-emergence action against ALOMY in % (ALOMY [17]) [%] | other results
O=C(O)COc1nn(-c2cnccn2)c(-c2cncc(F)c2)c1Br [Example I-93] | 90 | 100 | 100 | 100 | 100 | 100 | 90 | 100 | 90 | 100 | 100 | 90 | 90 | 100 | 100 | 80 | 80 | 80 | 90 | Post-emergence action against SETVI in % (SETVI [1]; Dosage 80 g/ha): 90%; Pre-emergence action against PHBPU in % (PHBPU [6]): 100%; Pre-emergence action against MATIN in % (MATIN): 100%; Post-emergence action against PHBPU in % (PHBPU [12]; dosage 80 g/ha): 90%; Post-emergence action against PHBPU in % (PHBPU [12]; dosage 320 g/ha): 90%; Post-emergence action against VERPE in % (VERPE [16]; dosage 80 g/ha): 80%
COC(=O)[C@@H](C)Oc1nn(-c2cnccn2)c(-c2ccc(F)nc2)c1Br [Example I-17] | 80 | 100 | 90 | 100 | 100 | 100 | 90 | 100 | 90 | 100 | 100 | 80 | 80 | 90 | 100 | 80 | 80 | 90 | 100 | herbicidal efficacy against harmful plants in the case of post-emergence treatment (in words) (harmful plants [18]): good herbicidal efficacy; Pre-emergence action against DIGSA in % (DIGSA [19]): 100%; Post-emergence action against ALOMY in % (ALOMY [9]; Dosage 80 g/ha): 100%; Post-emergence action against LOLRI in % (LOLRI [10]; Dosage 80 g/ha): 90%; Post-emergence action against POLCO in % (POLCO [20]): 90%; Pre-emergence action against VIOTR in % (VIOTR [21]): 100%; Post-emergence action against VIOTR in % (VIOTR [22]; dosage 80 g/ha): 90%; Post-emergence action against VIOTR in % (VIOTR [22]; dosage 320 g/ha): 90%; herbicidal efficacy against harmful plants in the case of pre-emergence treatment (in words) (harmful plants [23]): good herbicidal efficacy; Post-emergence action against DIGSA in % (DIGSA [24]; Dosage 80 g/ha): 80%; Post-emergence action against DIGSA in % (DIGSA [24]; Dosage 320 g/ha): 90%
